Laboratory results: US5561131A, “Defaunation method” (Mallinckrodt Veterinary, Inc., priority 1991, dated 1996)

Legend:
rumen ciliate protozoa [1] = experiment: In vitro activity of defaunation compounds against rumen ciliate protozoa; format: cell-based; conditions: 39° C., anaerobic, 3 hours, tested at 50, 150, 250 and 500 ppm
Protocol: Compounds of Table 1 were tested for their toxicity against rumen ciliate protozoa by firstly isolating protozoa from rumen liquor collected from faunated animals. The rumen liquor was then centrifuged at 500 g for five minutes and the supernatant discarded. The protozoal-rich sediment was then reconstituted in McDougal's artificial saliva. Residual bacteria were suppressed by using a combination of two antibiotics at low concentration. Nitrogen and energy substrate was optimized for the protozoal preparation. At all times the protozoal preparation was maintained at 39° C. and kept anaerobic.
Sixty milligrams of each the compounds of Table 1 were dissolved in 1.2 ml of dimethyl sulphoxide and dispersed in triplicate to achieve a final concentration of 50, 150, 250 and 500 ppm. Ten milliliters of protozoal preparation was then added to each tube. After every second compound, control tubes were included which contained everything except for compound. The tubes, to which a 5 ml glass syringe was attached, were then incubated for 3 hours in a water bath at 39° C. The production of gas causes the syringe plunger to be displaced.
At the end of the incubation period, the volume of gas produced was recorded and the viability of the protozoa assessed visually using a microscope. The toxicity of the compounds to protozoa was assessed from both the reduction in gas produced relative to the control and by direct observation of the protozoa for movement of cilia.

rumen bacteria [2] = experiment: In vitro bacterial gas inhibition; format: cell-based; conditions: at the concentration known to kill protozoa
Protocol: Compounds of Table 1 were also tested for toxicity bacteria. This involved removing protozoa from rumen liquor by centrifugation at 2,000 g for 5 minutes and collecting the bacterial rich supernatant. Nitrogen and energy substrate was added to the bacterial preparation which was then dispensed in triplicate 10 ml volumes over the same range of compound concentrations (50, 150, 250 and 500 ppm.) referred to in Example 2. Control tubes were placed after every second compound to enable the inhibition of gas resulting from the compound to be assessed. […] It can be seen that these compounds are selective in their mode of action, in that they are more toxic to protozoa than bacteria.

mice = experiment: Mouse safety assessment; format: in vivo; conditions: oral gavage, 830, 415 and 217 mg/kg, observed for 2 days
Protocol: Compounds of Table 1 chosen for testing in sheep were first tested in mice for signs of toxicity. Because sheep are approximately 5 times more sensitive than mice to compounds dosed orally, the dose rates applied to mice were 5 times greater than the target dose rate of 500 ppm. in rumen liquor (83 mg/kg live weight) used for sheep. Each compound was screened at three different dose levels, high (830 mg/kg), medium (415 mg/kg) and low (217 mg/kg).
252 mg of compound was used for dilution into a high medium and low dose rate. 252 mg of compound was mixed with 3 ml of G1284 solution (4% w/v ethoxylated castor oil and 0.05% w/v simethicone), to form the high dose composition. The medium dose composition was formed by diluting 1.5 ml of the high dose with 1.5 ml of G1284 solution. The low dose composition was formed by diluting 1.5 ml of the medium dose with 1.5 ml of G1284 solution. Before the high dose could be diluted it was first manually ball milled in an effort to produce a fine suspension of the compound.
All mice were weighed before dosing to calculate the appropriate dose rate. The calculation for dose rate was: [formula]
Each mouse was dosed using the Gavage method. With this method the mouse is dosed orally by way of an angled hypodermic needle (18 g) with a smooth spherical end. It is gently placed down the esophagus. All care must be taken not to force the needle and injure the esophagus or dose into the lungs.
Observations were made at 10, 30, 60 and 120 minutes after dosing, then every 1 or 2 hours for the first 6 hours.
Mice were usually observed for 2 days.
Typically, few compounds fell within the poor classification. The majority of compounds tested were either in the fair or good classification.

rumen ciliate protozoa [3] = experiment: Protozoal reduction in sheep; format: in vivo; set-up: concentration or dose not given beside the values; conditions: one week after dosing, relative to predosing numbers
Protocol: Defaunation compositions were prepared according to the method of Example 1.
Prior to dosing of the compound, a sample of rumen liquor (200 ml) was withdrawn to establish basal numbers of protozoa.
The sample was collected using a stomach tube, inserted into the rumen via a rumen cannula (fistulated animals) or per esophagus (intact animals). After straining the sample was well mixed using a magnetic stirrer and a 0.5 ml sample was withdrawn and added to 49.5 ml of a crystal violet stain. Protozoa were counted using a microscope and a Hawksley counting chamber.
One week after administering the compound, another rumen liquor sample was collected (as described above) and examined for the presence of protozoa. Where rumen ciliate protozoa were undetectable, a reduction or inhibition value of 100% was recorded. In general, most compounds expressed a strong inhibitory effect on protozoal populations.

rumen bacteria [4] = experiment: Bacterial viability in sheep after administering defaunation compounds; format: in vivo; conditions: gas production one week after dosing vs pre-dosing
Protocol: In order to establish what effect the compounds had on the viability of rumen bacteria, a sample of rumen liquor was collected prior to dosing of the compound. The sample was withdrawn under vacuum using a pre-warmed tube inserted into the rumen through a rumen cannula. The sample was collected in a pre-warmed (39° C.) flask, gassed with carbon dioxide and covered. Two-pre-warmed 30 ml centrifuge tubes were then filled with well mixed rumen liquor and centrifuged at 2000 rpm for 5 minutes. Half the volume of each tube was then poured into another pre-warmed tube without disturbing the sediment. Three lots of 10 ml of this rumen liquor were then pipetted into 15 ml tubes which contained 10 μL of urea solution (40% w/v and 300 μL of glucose solution (50% w/v). The urea and glucose acted as substrate for the bacteria. The tubes were then gassed with carbon dioxide, stoppered and placed in a water bath at 39° C. After 10 minutes a 5 ml glass syringe was secured into the stoppers (through which a hypodermic needle had been inserted) and the gas collected for five hours and recorded.
This bacterial viability measure was then repeated one week after dosing with each of the compounds referred to in Table 1. Defaunation compositions were prepared according to the method of Example 1. The amount of gas produced was then compared with the pre-dosing level. The criterion for classifying post-dosing bacterial viability is shown below:
Poor--reduction in post-dosing gas production relative to pre-dosing levels.
OK--post-dosing gas production the same as pre-dosing levels.
Good--increase in post-dosing gas production relative to pre-dosing levels.

[5] = Effect of defaunation compounds on feed intake of sheep; format: in vivo; conditions: after dosing vs pre-dosing intake
Protocol: Sheep were allowed a minimum of three weeks to adapt to their ration of 900 g of oaten chaff and 100 g of Lucerne chaff. The pre-dosing level of intake for each animal was established from the mean of five days intake immediately prior to dosing. Any effects of administering the compound on feed intake was then determined by measuring the level of feed intake after dosing.
The criteria of classifying the effect on food intake are shown below.
Poor--greater than 50% reduction in feed intake during the first week after dosing.
Fair--greater than 50% reduction in feed intake on the day following dosing but less then 50% reduction one week after dosing.
OK--transient drop in feed intake which is less than 50% on the day after dosing.
Good--No reduction in feed intake following dosing.

| SMILES | Conc Required to Kill all Protozoa (rumen ciliate protozoa [1]) | Bact. Gas Inhibition at the conc. required to kill protozoa (rumen bacteria [2]) | Mouse Safety Assessment (mice) | Protozoal Reduction (rumen ciliate protozoa [3]) | Bacterial Viability (rumen bacteria [4]) | Feed Intake [5] |
| --- | --- | --- | --- | --- | --- | --- |
| Clc1nc(Cl)nc(Nc2ccccc2)n1 [Compound 1] | 250 ppm | 43 | – | – | – | – |
| Clc1ccc(Nc2nc(Cl)nc(Cl)n2)cc1 [Compound 2] | 150 ppm | 38 | Poor (death at 840 mg/kg) | 100% | Good | Fair |
| Clc1nc(Cl)nc(Nc2ccc(Br)cc2)n1 [Compound 3] | 250 ppm | 45 | – | 100% | Good | Good |
| Oc1ccc(Nc2nc(Cl)nc(Cl)n2)cc1 [Compound 4] | 250 ppm | 43 | – | 100% | Poor | Poor (greater than 50% reduction between day 2 to day 8) |
| COc1ccc(Nc2nc(Cl)nc(Cl)n2)cc1 [Compound 5] | 250 ppm | 33 | Good | 100% | Poor | Fair |
| Cc1ccc(Nc2nc(Cl)nc(Cl)n2)cc1 [Compound 6] | 150 ppm | 40 | Poor (death at 840 mg/kg) | 100% | Okay | Okay (transient drop, less than 50% at day 2) |
| Clc1nc(Cl)nc(Nc2ccc(Cl)c(Cl)c2)n1 [Compound 7] | 250 ppm | 30 | Fair (>2 mice sick) | 100% | Poor | Poor (greater than 50% reduction between day 2 to day 8) |
| Cc1ccccc1Nc1nc(Cl)nc(Cl)n1 [Compound 8] | 250 ppm | 43 | Good | 96% | Okay | Okay (transient drop, less than 50% at day 2) |
| Cc1cc(C)c(Nc2nc(Cl)nc(Cl)n2)c(C)c1 [Compound 9] | 250 ppm | 41 | Good | 88% | Good | Good |
| Cc1ccc(Nc2nc(Cl)nc(Cl)n2)cc1C [Compound 10] | 250 ppm | 55 | Fair (>2 mice sick) | 100% | Good | Good |
| Clc1nc(Cl)nc(Nc2ccc(I)cc2)n1 [Compound 11] | 250 ppm | 71 | Fair (>2 mice sick) | 84% | Okay | Good |
| Cc1ccc(N(C)c2nc(Cl)nc(Cl)n2)c(C)c1 [Compound 12] | 250 ppm | 35 | – | – | – | – |
| COc1ccc(Nc2nc(Cl)nc(Cl)n2)c(C)c1 [Compound 13] | 250 ppm | 48 | – | – | – | – |
| CN(c1ccccc1)c1nc(Cl)nc(Cl)n1 [Compound 14] | 250 ppm | 38 | – | – | – | – |
| CSc1cccc(Nc2nc(Cl)nc(Cl)n2)c1 [Compound 15] | 150 ppm | 52 | Fair (>2 mice sick) | 100% | Good | Good |
| O=[N+]([O-])c1cccc(Nc2nc(Cl)nc(Cl)n2)c1 [Compound 16] | 250 ppm | 47 | – | 72% | Good | Good |
| COc1ccc(Nc2nc(Cl)nc(Cl)n2)cc1OC [Compound 17] | 250 ppm | 43 | Good | 98% | Okay | Fair |
| CSc1ccc(Nc2nc(Cl)nc(Cl)n2)cc1 [Compound 18] | 150 ppm | 53 | Fair (>2 mice sick) | 100% | Okay | Okay (transient drop, less than 50% at day 2) |
| Clc1nc(Cl)nc(Nc2ccc(-c3ccccc3)cc2)n1 [Compound 25] | 150 ppm | 53 | – | – | – | – |
| Cc1ccc(Nc2nc(Cl)nc(Cl)n2)cc1[N+](=O)[O-] [Compound 26] | 250 ppm | 47 | – | – | – | – |
| COc1ccc(Nc2nc(Cl)nc(Cl)n2)c([N+](=O)[O-])c1 [Compound 31] | 250 ppm | 39 | – | – | – | – |
| Cc1ccc(N(C)c2nc(Cl)nc(Cl)n2)cc1 [Compound 33] | 250 ppm | 33 | – | – | – | – |
| Cc1cc(O)c(C(C)(C)C)cc1Nc1nc(Cl)nc(Cl)n1 [Compound 34] | 250 ppm | 81 | – | – | – | – |
